According to patent publication US6919092B2, “Method for the management of incontinence” (ALZA Corporation, priority 1995, dated 2005):

Assay: Multiple dose crossover clinical pharmacokinetic study, IR vs CR oxybutynin
Conditions: plasma

## CCNCC#CCOC(=O)C(O)(c1ccccc1)C1CCCCC1 (stereo not shown) [DESOXY]
  t1/2 life of DESOXY compared to OXY: shorter
